According to patent publication US5919761A, “Peptides for heparin and low molecular weight heparin anticoagulation reversal” (The Board of Regents of the University of Michigan, priority 1995, dated 1999):
“And” between values parts separate entries of the source, which are not always exact repeats. Equal values may be shown once. Peptide text beside a SMILES is read from it.

How the values were obtained:
[1] = Maximum hemodynamic changes and total toxicity score after Enoxaparin reversal, canine study; conditions: dogs, agent over 10 seconds; for Maximum hemodynamic change, Mean BP: Enoxaparin 100 IU/kg; for Maximum hemodynamic change, Mean BP / Maximum hemodynamic change, CO / Maximum hemodynamic change, HR / Maximum hemodynamic change, VO2: 5 minutes; for Total Toxicity Score (TTS) / Maximum hemodynamic change, CO / Maximum hemodynamic change, HR / Maximum hemodynamic change, VO2: Enoxaparin
Protocol: (§1) Seven female dogs (mean weight 15-20 kg) received intravenous standard, unfractionated heparin (150 IU/kg IV) or LMWH (Enoxaparin, Rhone-Poulac, France; 100 IU/kg factor Xa activity) followed by reversal with commercial salmine protamine (n-protamine purchased from Eli Lilly, Indianapolis, Ind., 1.5 mg/kg (100 IU/mg) IV) or an anticoagulation-reversing agent which is a protamine-like peptide variant identified hereinbelow. In these studies, the anticoagulation-reversing agents were administered over a 10 second interval to maximize the hemodynamic effects.

[2] = Maximum hemodynamic changes and total toxicity score after standard heparin reversal, cell adhesion ligand analogs, canine study; conditions: dogs, agent over 10 seconds; for Maximum hemodynamic change, Mean BP: standard heparin 150 IU/kg IV; for Maximum hemodynamic change, Mean BP / Maximum hemodynamic change, CO / Maximum hemodynamic change, HR / Maximum hemodynamic change, VO2: 5 minutes; for Maximum hemodynamic change, CO / Maximum hemodynamic change, HR / Maximum hemodynamic change, VO2: standard heparin; for Total Toxicity Score: standard unfractionated heparin
Protocol: In these studies, the anticoagulation-reversing agents were administered over a 10 second interval to maximize the hemodynamic effects.
Hemodynamic studies were conducted by measuring mean blood pressure (Mean BP) in mm Mercury, maximum percent changes in cardiac output (CO) and systemic oxygen consumption (VO2), and heart rate (HR) in beats per minute. Measurements and calculations were made at baseline, before administration of standard, unfractionated heparin, 3 minutes before reversal, every 30 seconds for 5 minutes after reversal.
Total toxicity scores (TTS) were developed in accordance with the method described hereinabove that reflected maximum declines in each of four parameters (MAP, CO, VO2 and HR) over the first 5 minutes after reversal.

LMWH (Enoxaparin) = experiment: Factor Xa and IIa reversal after LMWH Enoxaparin, canine study; format: in vivo; conditions: dogs, 3 min
Protocol: Similar studies were conducted to assess the ability of the protamine-like peptide analogs described in this section to reverse the anticoagulation effects of the LMWH, Enoxaparin. FIG. 5a through FIG. 5d are graphical representations of LMWH anticoagulation activities achieved by n-protamine (Protamine [+21]), and compounds [+18BE], [+18KDEL], and [+18RGD] plotted as a percent of reversal against time in minutes. […] Referring to FIG. 5c, compound [+18RGD] dramatically outperforms n-protamine in reversing the heparin antifactor Xa activity of Enoxaparin.

[3] = system: standard, unfractionated heparin; experiment: Factor Xa and IIa reversal after standard heparin, cell adhesion ligand analogs, canine study; format: in vivo; conditions: dogs, 3 min post administration
Protocol: Anticoagulation reversal was assessed by a number of standard coagulation tests performed upon samples of venous blood in the manner described hereinabove. Measurements were made 3 minutes prior to heparin reversal (baseline) and 3 minutes, 10 minutes, and 30 minutes post-administration of the heparin reversal agent. […] Referring to FIGS. 4a through 4d, compound [+18RGD] performs as well, or better, than n-protamine in the standard coagulation tests performed in these studies.

[4] = Percent change in platelet count after standard heparin reversal, cell adhesion ligand analogs, canine study; format: in vivo; conditions: dogs, agent over 10 seconds
Protocol: In addition to hemodynamic changes, Table 15 lists the percent change in platelet count following administration of n-protamine and the selected variants, as well as the factor Xa and factor IIa reversal, as a percent change at 3 minutes post administration of the compound.

[5] = Percent change in platelet count after Enoxaparin reversal, canine study; format: in vivo; conditions: dogs, agent over 10 seconds
Protocol: as §1

[6] = Hemodynamic studies and total toxicity score after standard heparin reversal, canine study; conditions: dogs
Protocol: As used hereinafter, the peptides will be identified by their total cationic charge value, e.g., [+8], [+16], etc.
Hemodynamic studies were conducted by measuring mean arterial pressure (MAP), heart rate (HR), and maximum percent changes in cardiac output (CO) and systemic oxygen consumption (VO2).
Total toxicity scores (TTS) were developed that reflected maximum declines in each of four parameters (MAP, CO, VO2 and HR) over the first 5 minutes after reversal, the latter being the time of expected greatest adverse hemodynamic effect. The maximum changes occurring in an individual dog over the first 5 minutes were divided by the standard deviation derived from the entire group of tested animals and the four scores were added, resulting in a TTS for each individual dog. The TTS values for each dog were then summed to obtain an average TTS and SD for each peptide studied.

[7] = system: standard, unfractionated heparin; experiment: Percent reversal of standard heparin anticoagulation by variant peptides and protamine, in vivo canine study, coagulation tests; set-up: species or system dogs; conditions: for Percent reversal of heparin anticoagulation, ACT: heparin 150 IU/kg IV, agent 1.5 mg/kg IV over 10 seconds
Protocol: Data are expressed as a mean ±1 SD. Statistical analysis using linear regression for determination of correlation coefficients, and analysis of variance (ANOVA) or unpaired two-way Student's t-test; p<0.05 was accepted as statistically significant.
Anticoagulation reversal was assessed by a number of standard coagulation tests performed upon samples of venous blood: activated clotting time (ACT), prothrombin time (PT), activated partial thromboplastin time (aPTT), thrombin clotting time (TCT), heparin concentration by assay for FXa inhibitory activity (FXa), white cell count (WBC), and platelet counts (PLT). Measurements were made 3 minutes prior to heparin reversal (baseline) and 3 minutes and 30 minutes post-administration of the heparin reversal agent. The "Heparin" row sets forth the observed reversal as a consequence of expected heparin metabolism or degradation alone.

Compound	Maximum hemodynamic change, Mean BP [1]	Total Toxicity Score (TTS) [1]	Maximum hemodynamic change, CO [1]	Maximum hemodynamic change, HR [1]	Maximum hemodynamic change, VO2 [1]	Maximum hemodynamic change, Mean BP [2]	Maximum hemodynamic change, CO [2]	Maximum hemodynamic change, HR [2]	Maximum hemodynamic change, VO2 [2]	Total Toxicity Score [2]	IIa Reversal (LMWH (Enoxaparin))	Xa Reversal (LMWH (Enoxaparin))	IIa Reversal [3]	Xa Reversal [3]	Platelet (percent change in platelet count) [4]	Platelet (percent change in platelet count) [5]	also measured
CC(=O)N[C@@H](CCC(=O)O)C(=O)N[C@@H](C)C(=O)N[C@@H](CCCNC(=N)N)C(=O)N[C@@H](CCCNC(=N)N)C(=O)N[C@@H](C)C(=O)N[C@@H](C)C(=O)N[C@@H](CCCNC(=N)N)C(=O)N[C@@H](CCCNC(=N)N)C(=O)N[C@@H](C)C(=O)N[C@@H](CCCNC(=N)N)C(=O)N[C@@H](CCCNC(=N)N)C(=O)N[C@@H](C)C(=O)N[C@@H](C)C(=O)N[C@@H](CCCNC(=N)N)C(=O)N[C@@H](CCCNC(=N)N)C(=O)N[C@@H](C)C(=O)N[C@@H](CCCNC(=N)N)C(=O)N[C@@H](CCCNC(=N)N)C(=O)N[C@@H](C)C(=O)N[C@@H](C)C(=O)N[C@@H](CCCNC(=N)N)C(=O)N[C@@H](CCCNC(=N)N)C(=O)N[C@@H](C)C(=O)N[C@@H](CCCNC(=N)N)C(=O)N[C@@H](CCCNC(=N)N)C(=O)N[C@@H](C)C(=O)N[C@@H](C)C(=O)N[C@@H](CCCNC(=N)N)C(=O)N[C@@H](CCCNC(=N)N)C(=O)N[C@@H](C)C(=O)N[C@@H](CCCNC(=N)N)C(=O)N[C@@H](CCCNC(=N)N)C(=O)NCC(=O)N[C@H](C(=O)N[C@@H](CCCCN)C(=O)N[C@@H](CC(=O)O)C(=O)N[C@@H](CCC(=O)O)C(=O)N[C@@H](CC(C)C)C(=O)O)C(C)C [[+18KDEL], acetyl-EA(R2 A2 R2 A)4 R2 GVKDEL] (Ac-EARRAARRARRAARRARRAARRARRAARRARRGVKDEL-OH)	-6 mm Mercury	-5.00 and -5.0 ± 3.44	-14%	-11 beats/min	-10%	-5 mm Mercury	-12%	-14 beats/min	-6%	-3.53 ± 1.65	98%	48%	94%	97%	-24%	-40%	
CC(=O)N[C@@H](CCC(=O)O)C(=O)N[C@@H](C)C(=O)N[C@@H](CCCNC(=N)N)C(=O)N[C@@H](CCCNC(=N)N)C(=O)N[C@@H](C)C(=O)N[C@@H](C)C(=O)N[C@@H](CCCNC(=N)N)C(=O)N[C@@H](CCCNC(=N)N)C(=O)N[C@@H](C)C(=O)N[C@@H](CCCNC(=N)N)C(=O)N[C@@H](CCCNC(=N)N)C(=O)N[C@@H](C)C(=O)N[C@@H](C)C(=O)N[C@@H](CCCNC(=N)N)C(=O)N[C@@H](CCCNC(=N)N)C(=O)N[C@@H](C)C(=O)N[C@@H](CCCNC(=N)N)C(=O)N[C@@H](CCCNC(=N)N)C(=O)N[C@@H](C)C(=O)N[C@@H](C)C(=O)N[C@@H](CCCNC(=N)N)C(=O)N[C@@H](CCCNC(=N)N)C(=O)N[C@@H](C)C(=O)N[C@@H](CCCNC(=N)N)C(=O)N[C@@H](CCCNC(=N)N)C(=O)N[C@@H](C)C(=O)N[C@@H](C)C(=O)N[C@@H](CCCNC(=N)N)C(=O)N[C@@H](CCCNC(=N)N)C(=O)N[C@@H](C)C(=O)N[C@@H](CCCNC(=N)N)C(=O)N[C@@H](CCCNC(=N)N)C(=O)NCC(=O)N[C@@H](CCCNC(=N)N)C(=O)NCC(=O)N[C@@H](CC(=O)O)C(=O)N[C@@H](CO)C(=O)N1CCC[C@H]1C(=O)N[C@@H](C)C(N)=O [[+18RGD], acetyl-EA--(R2 A2 R2 A)4 R2 GRGDSPA-amide] (Ac-EARRAARRARRAARRARRAARRARRAARRARRGRGDSPA-NH2)	-1 mm Mercury	-2.68 and -2.68 ± 0.88	-3%	-3 beats/min	-7%	-2 mm Mercury	-3%	-3 beats/min	-4%	-1.43 ± 0.61	100%	72%	100%	100%	-27%	-31%	
P(K2 O2 G4)3 K2 O2 [[+8]]																	ΔHR [6]: -9; ΔMAP ([6]; average maximum decline in first five minutes after peptide administration): -1; average total toxicity score (TTS±SD) ([6]; first 5 minutes after reversal, more negative = more toxic): -1.9±1.1; ΔCO ([6]; maximum percent change): -8%; ΔVO2 ([6]; maximum percent change): -8%; in vivo heparin reversal (summary) ([7]; dogs, standard heparin): not capable of effect heparin reversal; Percent reversal of heparin anticoagulation, ACT ([7]; dogs, 3 min post-administration): 7%; Percent reversal of heparin anticoagulation, ACT ([7]; dogs, 30 min): 37%; Percent reversal of heparin anticoagulation, APTT ([7]; same study, 3 min): 0%; Percent reversal of heparin anticoagulation, FNa ([7]; same study, 3 min): 8%; Percent reversal of heparin anticoagulation, FXa ([7]; same study, 3 min): -1%; Percent reversal of heparin anticoagulation, PT ([7]; same study, 3 min): 21%; Percent reversal of heparin anticoagulation, TCT ([7]; same study, 3 min): 0%; Percent reversal of heparin anticoagulation, APTT ([7]; same study, 30 min): 50%; Percent reversal of heparin anticoagulation, FXa ([7]; same study, 30 min): 9%; Percent reversal of heparin anticoagulation, PT ([7]; same study, 30 min): 50%; Percent reversal of heparin anticoagulation, TCT ([7]; same study, 30 min): 0%
